Measurements reported in patent publication US8470363B2, “Antihypertensive pharmaceutical composition” (Shihuida Pharmaceuticals Group (JILIN) Ltd., priority 2010, dated 2013).

Key:
[1] = system: spontaneous hypertension SHR rats; test: Blood pressure depressing test in rats (tail artery systolic pressure, tail volume method); format: in vivo, rat; details: for systolic pressure at the tail artery, before administration: baseline before administration, n=10 per group; for antihypertensive effect compared with the blank model group / systolic pressure at the tail artery, 1 week after administration / systolic pressure at the tail artery, 2 weeks after administration / systolic pressure at the tail artery, 3 weeks after administration / systolic pressure at the tail artery, 4 weeks after administration: intragastric; for antihypertensive effect compared with the blank model group: doses as in Table 3; for systolic pressure at the tail artery, 1 week after administration / systolic pressure at the tail artery, 2 weeks after administration / systolic pressure at the tail artery, 3 weeks after administration / systolic pressure at the tail artery, 4 weeks after administration: levamlodipine benzenesulfonate 5 mg/kg·d, indapamide 5 mg/kg·d, compound low-dose 2.5+0.5 mg/kg·d, compound high-dose 2.5+2.5 mg/kg·d
Excerpt: (§1) Experiment method: 50 health spontaneous hypertension SHR rats (female to male 1:1, weight 200-240 g) were equally divided into 5 groups according to the level of the hypertension (the specific grouping method is as shown in Table 3), and intragastrically administrated with the medicine. For the blood pressure of the rate, the systolic pressure at the tail artery of the rat when being wake and quite was indirectly measured by an electronic blood pressure meter through the tail volume method respectively before administration and at the end of one, two, three, and four weeks after administration. [table]

[2] = system: spontaneous hypertension SHR rats; test: Edema side effect in the SHR rat blood pressure test; format: in vivo; details: intragastric
Excerpt: as §1, with “administration.” for “administration. [table]”

[3] = background statement, species not given; cited from earlier work

## levamlodipine benzenesulfonate
[1]
  systolic pressure at the tail artery, before administration: 26.96 ± 1.29 KPa
  antihypertensive effect compared with the blank model group: significant antihypertensive effect
  systolic pressure at the tail artery, 1 week after administration: 26.79 ± 1.31 Kpa
  systolic pressure at the tail artery, 2 weeks after administration: 25.33 ± 1.26 KPa
  systolic pressure at the tail artery, 3 weeks after administration: 24.55 ± 1.28 KPa
  systolic pressure at the tail artery, 4 weeks after administration: 23.87 ± 1.28 KPa
[2]; 5 mg levamlodipine benzenesulfonate/kg·d, up to 4 weeks
  edema incidence rate: 10%

## CC1Cc2ccccc2N1NC(=O)c1ccc(Cl)c(S(N)(=O)=O)c1 (stereo not drawn) [Indapamide, indapamide]
[1]
  systolic pressure at the tail artery, before administration: 27.02 ± 1.39 KPa
  antihypertensive effect compared with the blank model group: significant antihypertensive effect
  systolic pressure at the tail artery, 1 week after administration: 26.88 ± 1.38 Kpa
  systolic pressure at the tail artery, 2 weeks after administration: 25.85 ± 1.38 KPa
  systolic pressure at the tail artery, 3 weeks after administration: 25.56 ± 1.35 KPa
  systolic pressure at the tail artery, 4 weeks after administration: 25.36 ± 1.36 KPa
[2]; doses as in Table 3, up to 4 weeks
  occurrence of edema side effect: no edema occurred
[3]
  half-life: 17 h
